Measurements taken from article PMC10653921 (mBio, 2023).

Experiments:
PA4915-LBD = target: T1, PA4915-LBD (Pseudomonas aeruginosa, UniProt Q9HUP8); type: binding; settings: read-out: KD by ITC ^ b
T1 sequence (Q9HUP8 32-189 limits assumed): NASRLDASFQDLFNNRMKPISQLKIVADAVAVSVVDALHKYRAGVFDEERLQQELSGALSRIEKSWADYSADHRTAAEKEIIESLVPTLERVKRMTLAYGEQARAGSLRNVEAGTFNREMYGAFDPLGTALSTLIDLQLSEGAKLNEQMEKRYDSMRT

PctC-Tar = settings: read-out: EC50 by FRET ^ a; attractant response, tethering buffer pH 7.0, Hill fit
PctA-Tar = settings: read-out: EC50 by FRET ^ a; attractant response, tethering buffer pH 7.0, Hill fit
PctB-Tar = settings: read-out: EC50 by FRET ^ a; attractant response, tethering buffer pH 7.0, Hill fit
PctB-LBD (PA4310) = target: T2, PctB-LBD (PA4310) (Pseudomonas aeruginosa, UniProt Q9HW91); type: binding; settings: read-out: KD by ITC ^ b
T2 sequence (Q9HW91 32-276 limits assumed): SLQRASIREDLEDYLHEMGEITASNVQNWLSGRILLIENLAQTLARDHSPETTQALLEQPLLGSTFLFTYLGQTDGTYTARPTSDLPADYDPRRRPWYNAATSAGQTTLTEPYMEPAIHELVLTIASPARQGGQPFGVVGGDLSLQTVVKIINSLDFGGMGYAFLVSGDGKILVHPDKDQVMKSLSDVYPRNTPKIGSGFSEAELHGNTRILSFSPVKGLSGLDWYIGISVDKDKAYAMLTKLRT

## NCCc1ccccc1 [2-Phenylethylamine]
PA4915-LBD
  Kd: 58 ± 11 µM

## NCCCCC(=O)O [5-Aminovalerate]
PctC-Tar
  EC50: 1.5 ± 0.2 µM

## NCCC[C@H](N)C(=O)O [L-Ornithine]
PctA-Tar
  EC50: 1.8 ± 0.2 µM
PctB-Tar
  EC50: 10.2 ± 0.8 µM
PctB-LBD (PA4310)
  Kd: 559 ± 80 µM

## COC(=O)CCCN [Methyl 4-aminobutyrate]
PctC-Tar
  EC50: 2.9 ± 0.4 µM
